Assay results as given in patent US9150568B2, “Compositions and methods for modulating FXR” (NOVARTIS AG, priority 2010, dated 2015).

Biological target: T1, human Farnesoid X Receptor (FXR) ligand binding domain (GST-FXR LBD) (Homo sapiens, UniProt Q96RI1)
T1 construct: purchased Invitrogen
T1 sequence (Q96RI1 193-472 isoform Q96RI1-2): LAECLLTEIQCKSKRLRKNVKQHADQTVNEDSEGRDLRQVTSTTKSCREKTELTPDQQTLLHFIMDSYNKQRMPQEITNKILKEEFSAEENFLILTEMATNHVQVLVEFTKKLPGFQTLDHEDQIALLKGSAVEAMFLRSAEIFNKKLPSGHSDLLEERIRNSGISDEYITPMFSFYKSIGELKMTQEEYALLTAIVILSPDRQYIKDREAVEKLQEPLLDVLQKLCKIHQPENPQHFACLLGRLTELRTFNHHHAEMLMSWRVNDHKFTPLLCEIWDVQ
Test: Human GST-FXR LBD co-activator interaction assay (HTRF)
Type: biochemical
Conditions: GST-FXR LBD / biotin-SRC-1 peptide FRET; response relative to GW4064; read-out: FXR Co-activator interaction assay (EC50)
Procedure, shortened: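 FRET (HTRF) read-out of ligand-induced binding between GST-FXR LBD and an SRC-1 peptide, detected with anti-GST cryptate and streptavidin-XL665 in buffer with 50 mM KF. Response % was normalized to DMSO and to the maximal GW4064 response. EC50 came from a four-parameter fit.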

| Compound | EC50 [nM] |
| --- | --- |
| O=C(O)c1ccc(N2[C@@H]3CC[C@H]2C[C@@H](OCc2c(-c4cccc(F)c4)noc2C2CC2)C3)nc1 [Example 30-9] | 340 |
| O=C(O)c1ccc2nc(N3C4CC[C@H]3C[C@H](OCc3c(C5CCC6(CC5)CC6)noc3C3CC3)C4)sc2c1 [Example 13-1B] | 1.3 |
| O=C(O)c1cc(F)c2nc(N3C4CC[C@H]3C[C@H](OCc3c(-c5ccccc5OC(F)F)noc3C3CC3)C4)sc2c1 [Example 6-3B] | 0.27 |
| COC(=O)c1cc(C)nc(N2C3CC[C@H]2CC(OCc2c(-c4c(F)cccc4F)noc2C2CC2)C3)n1 (stereo partly drawn) [Example 22-18A] | 43 |
| O=C(O)c1cnc(N2C3CC[C@H]2C[C@H](OCc2c(-c4ccccc4OC(F)(F)F)noc2C2CC2)C3)c(C2CC2)c1 [Example 18-2B, 5-cyclopropyl-6-((1S,3R)-3-((5-cyclopropyl-3-(2-(trifluoromethoxy)phenyl)isoxazol-4-yl)methoxy)-8-azabicyclo[3.2.1]octan-8-yl)nicotinic acid] | 7 |
| Cc1ccccc1-c1noc(C2CC2)c1CO[C@H]1C[C@H]2CC[C@@H](C1)N2c1ccc(C(=O)O)cn1 [Example 30-2] | 10 |
| O=C(O)c1ccc2nc(N3C4CC[C@H]3CC(OCc3c(-c5ccccc5OC(F)(F)F)noc3C3CC3)C4)ccc2c1 (stereo partly drawn) [Example 30-53] | 1 |
| COC(=O)c1ccc(N2C3CC[C@H]2CC(OCc2c(-c4ccccc4OC(F)F)noc2C2CC2)C3)nn1 (stereo partly drawn) [Example 22-9A] | 1030 |
| O=C(O)c1cccc(N2C3CC[C@H]2C[C@H](OCc2c(-c4ccccc4OC(F)(F)F)noc2C2CC2)C3)n1 [Example 19-7B] | 3 |
| O=C(O)c1nsc2cc(N3C4CC[C@H]3CC(OCc3c(-c5ccccc5C(F)(F)F)noc3C3CC3)C4)ccc12 (stereo partly drawn) [Example 28-21] | 2.2 |
| O=C(O)c1cc(C2CC2)nc(N2C3CC[C@H]2CC(OCc2c(-c4ccccc4OC(F)F)noc2C2CC2)C3)n1 (stereo partly drawn) [Example 30-41] | 4 |
| O=C(O)c1cn2ccc(N3C4CCC3CC(OCc3c(-c5ccccc5OC(F)(F)F)noc3C3CC3)C4)cc2n1 (stereo not drawn) [Example 28-24] | 24 |
| COc1cc(C(=O)O)cc2sc(N3C4CC[C@H]3C[C@H](OCc3c(-c5c(F)cccc5F)noc3C3CC3)C4)nc12 [Example 6-6B] | 0.3 |
| O=C(O)c1ccc2nc(N3C4CC[C@H]3CC(OCc3c(-c5ccccc5C(F)(F)F)noc3C3CC3)C4)ccc2c1 (stereo partly drawn) [Example 30-54] | 16 |
| Cc1cccc(C)c1-c1noc(C2CC2)c1COC1CC2CC[C@@H](C1)N2c1ccc(C(=O)O)cn1 (stereo partly drawn) [Example 30-15] | 9 |
| O=C(O)c1ccc(N2C3CC[C@H]2CC(OCc2c(-c4ccccc4OC(F)(F)F)noc2C2CC2)C3)c(F)c1 (stereo in doubt) [Example 23B, 4-(3-((5-cyclopropyl-3-(2-(trifluoromethoxy)phenyl)isoxazol-4-yl)methoxy)-8-azabicyclo[3.2.1]octan-8-yl)-3-fluorobenzoic acid] | 4 |
| O=C(O)c1cnc(N2C3CC[C@H]2CC(OCc2c(-c4ccccc4C(F)(F)F)noc2C2CC2)C3)cn1 (stereo partly drawn) [Example 21-3B] | 9 |
| COC(=O)c1cnc(N2[C@@H]3CC[C@H]2C[C@@H](OCc2c(-c4c(F)cccc4F)noc2C2CC2)C3)cc1C(F)(F)F [Example 22-16A] | 160 |
| O=C(O)c1cc(F)c2nc(N3C4CC[C@H]3C[C@H](OCc3c(C5CCCCC5)noc3C3CC3)C4)sc2c1 [Example 9-1] | 5 |
| COC(=O)c1cncc(N2C3CC[C@H]2C[C@H](OCc2c(-c4ccccc4OC(F)(F)F)noc2C2CC2)C3)n1 [Example 19-5A] | 200 |
| O=C(NCCS(=O)(=O)O)c1ccc2nc(N3C4CC[C@H]3C[C@H](OCc3c(-c5ccccc5OC(F)(F)F)noc3C3CC3)C4)sc2c1 [Example 16-1, 2-(2-(3-((5-cyclopropyl-3-(2-(trifluoromethoxy)phenyl)isoxazol-4-yl)methoxy)-8-azabicyclo[3.2.1]octan-8-yl)benzo[d]thiazole-6-carboxamido)ethanesulfonic acid] | 0.6 |
| O=C(O)c1ccc2nc(N3C4CC[C@H]3C[C@H](OCc3c(C5CC5c5ccccc5)noc3C3CC3)C4)sc2c1 (stereo partly drawn) [Example 10B, 2-(3-((5-cyclopropyl-3-(2-phenylcyclopropyl)isoxazol-4-yl)methoxy)-8-azabicyclo[3.2.1]octan-8-yl)benzo[d]thiazole-6-carboxylic acid] | 98 |
| O=C(O)c1nsc2cc(N3[C@@H]4CC[C@H]3C[C@@H](OCc3c(-c5ccccc5C5CC5)noc3C3CC3)C4)ccc12 [Example 28-22] | 0.2 |
| COC(=O)c1cc(Cl)nc(N2C3CC[C@H]2CC(OCc2c(-c4c(F)cccc4F)noc2C2CC2)C3)n1 (stereo partly drawn) [Example 22-20] | 25 |

| Compound | EC50 [nM] |
| --- | --- |
| O=C(O)c1cc(F)c2nc(N3C4CC[C@H]3C[C@H](OCc3c(C5CC5C(F)(F)F)noc3C3CC3)C4)sc2c1 (mixture of isomers) [Example 11] | 30 |
| COC(=O)c1cnc(N2C3CC[C@H]2CC(OCc2c(-c4ccccc4C(F)(F)F)noc2C2CC2)C3)cc1C(F)(F)F (stereo partly drawn) [Example 21-4A] | 250 |
| O=C(O)c1cc2nc(N3C4CC[C@H]3CC(OCc3c(-c5ccccc5OC(F)(F)F)noc3C3CC3)C4)ccn2n1 (stereo partly drawn) [Example 31-3] | 2 |
| O=C(O)c1ccc2c(N3C4CC[C@H]3CC(OCc3c(-c5ccccc5OC(F)(F)F)noc3C3CC3)C4)ncnc2c1 (stereo partly drawn) [Example 30-56] | 5.7 |
| Cn1ccc2c(N3C4CC[C@H]3CC(OCc3c(-c5ccccc5OC(F)(F)F)noc3C3CC3)C4)ncc(C(=O)O)c21 (stereo partly drawn) [Example 30-58] | 210 |
| CC(C)(O)c1ccc2nc(N3C4CC[C@H]3CC(OCc3c(-c5ccccc5OC(F)(F)F)noc3C3CC3)C4)sc2c1 (stereo partly drawn) [Example 4, 2-(2-(3-((5-cyclopropyl-3-(2-(trifluoromethoxy)phenyl)isoxazol-4-yl)methoxy)-8-azabicyclo[3.2.1]octan-8-yl)benzo[d]thiazol-6-yl)propan-2-ol] | 22 |
| COc1cc(C(=O)O)cc2sc(N3C4CC[C@H]3CC(OCc3c(-c5ccccc5OC(F)(F)F)noc3C3CC3)C4)nc12 (stereo partly drawn) [Example 2-1B, 2-(3-((5-cyclopropyl-3-(2-(trifluoromethoxy)phenyl)isoxazol-4-yl)methoxy)-8-azabicyclo[3.2.1]octan-8-yl)-4-methoxybenzo[d]thiazole-6-carboxylic acid] | 0.17 |
| O=C(O)CNC(=O)c1cc(F)c2nc(N3C4CC[C@H]3C[C@H](OCc3c(-c5ccccc5C(F)(F)F)noc3C3CC3)C4)sc2c1 [Example 15-4] | 0.8 |
| Cc1cc(C(=O)O)cc2sc(N3C4CC[C@H]3CC(OCc3c(-c5ccc(F)cc5)noc3C3CC3)C4)nc12 (stereo partly drawn) [Example 30-35] | 46 |
| O=C(O)CNC(=O)c1ccc2nc(N3C4CC[C@H]3C[C@H](OCc3c(-c5ccccc5OC(F)(F)F)noc3C3CC3)C4)sc2c1 [Example 15-1B, 2-(2-(3-((5-cyclopropyl-3-(2-(trifluoromethoxy)phenyl)isoxazol-4-yl)methoxy)-8-azabicyclo[3.2.1]octan-8-yl)benzo[d]thiazole-6-carboxamido)acetic acid] | 0.6 |
| O=C(O)c1cnc(N2C3CC[C@H]2C[C@H](OCc2c(-c4ccccc4OC(F)(F)F)noc2C2CC2)C3)nc1 [Example 18-4B] | 10 |
| O=C(O)c1ccc2nc(N3C4CC[C@H]3CC(OCc3c(-c5ccc(F)cc5F)noc3C3CC3)C4)sc2c1 (stereo partly drawn) [Example 30-61] | 2 |
| O=C(O)c1cc(F)c2nc(N3C4CC[C@H]3C[C@H](OCc3c(C5CCC6(CC5)CC6)noc3C3CC3)C4)sc2c1 [Example 13-2B] | 0.53 |
| O=C(O)c1cn2nc(N3C4CC[C@H]3CC(OCc3c(-c5ccccc5C(F)(F)F)noc3C3CC3)C4)ccc2n1 (stereo partly drawn) [Example 31-2] | 13 |
| O=C(O)c1cc(Br)c2nc(N3C4CC[C@H]3CC(OCc3c(-c5ccccc5OC(F)(F)F)noc3C3CC3)C4)sc2c1 (stereo partly drawn) [Example 30-40] | 0.7 |
| O=C(O)c1cc(F)c2nc(N3C4CC[C@H]3C[C@H](OCc3c(C5CC5)noc3C3CC3)C4)sc2c1 [Example 12-2] | 40 |
| COC(=O)c1cc(F)c2nc(N3C4CC[C@H]3CC(OCc3c(-c5ccccc5OC(F)(F)F)noc3C3CC3)C4)sc2c1 (stereo partly drawn) [Example 1-1A, Methyl 2-(3-((5-cyclopropyl-3-(2-(trifluoromethoxy)phenyl)isoxazol-4-yl)methoxy)-8-azabicyclo[3.2.1]octan-8-yl)-4-fluorobenzo[d]thiazole-6-carboxylate] | 14 |
| COc1cc(C(=O)O)cc2sc(N3C4CC[C@H]3CC(OCc3c(-c5c(F)cccc5Cl)noc3C3CC3)C4)nc12 (stereo partly drawn) [Example 30-17] | 0.7 |
| C[C@@H]1C(c2noc(C3CC3)c2COC2CC3CC[C@@H](C2)N3c2nc3c(F)cc(C(=O)O)cc3s2)C[C@@H]2C[C@H]1C2(C)C (stereo partly drawn) [Example 29-5] | 6 |
| O=C(O)c1ccc(N2[C@@H]3CC[C@H]2C[C@@H](OCc2c(-c4c(F)cccc4Cl)noc2C2CC2)C3)nc1 [Example 30-18] | 6 |
| COC(=O)c1cnc(N2C3CC[C@H]2C[C@H](OCc2c(-c4ccccc4OC(F)(F)F)noc2C2CC2)C3)nc1 [Example 18-4A] | 20 |
| Cc1cc(C(=O)O)nc(N2C3CC[C@H]2CC(OCc2c(-c4ccccc4OC(F)F)noc2C2CC2)C3)n1 (stereo partly drawn) [Example 22-8] | 5 |
| O=C(O)c1cc(F)c2nc(N3C4CC[C@H]3CC(OCc3c(C5C6CCCC65)noc3C3CC3)C4)sc2c1 (stereo partly drawn) [Example 29-1] | 14 |
| Cc1cc(C(=O)O)cc2sc(N3C4CC[C@H]3CC(OCc3c(-c5c(F)cccc5F)noc3C3CC3)C4)nc12 (stereo partly drawn) [Example 30-33] | 0.7 |
